Assay results from patent publication US11118065B2, “Fluorenylaminoketone photoinitiator, preparation method thereof, and UV photocurable composition containing same” (CHANGZHOU TRONLY ADVANCED ELECTRONIC MATERIALS CO., LTD., priority 2017, dated 2021).

Test: Test of solubility property
Settings: for HDDA (g/100 g): largest weight dissolved in 100 g of 1,6-hexanediol diacrylate (HDDA) at 20° C.; for Acetone (g/100 g): largest weight dissolved in 100 g of acetone at 20° C.

C=CCC1(CC=C)c2cc(OC)ccc2-c2ccc(C(=O)C(C)(C)N3CCOCC3)cc21 [Compound 4]
HDDA (g/100 g): >15 g/100 g
Acetone (g/100 g): >30 g/100 g

CCCCC1(CCCC)c2ccccc2-c2ccc(C(=O)C(C)(C)N3CCOCC3)cc21 [Compound 5]
HDDA (g/100 g): >15 g/100 g
Acetone (g/100 g): >30 g/100 g

CCCCC1(CCCC)c2cc(C(=O)c3ccccc3)ccc2-c2ccc(C(=O)C(C)(C)N3CCOCC3)cc21 [Compound 9]
HDDA (g/100 g): >15 g/100 g
Acetone (g/100 g): >30 g/100 g

CCCCC1(CCCC)c2cc(C(=O)C(CC)(Cc3ccccc3)N(C)C)ccc2-c2ccc(N3CCOCC3)cc21 (stereo not shown) [Compound 14]
HDDA (g/100 g): >15 g/100 g
Acetone (g/100 g): >30 g/100 g

CC(C)(C(=O)c1ccc2c(c1)Cc1cc(C(=O)C(C)(C)N3CCCCC3)ccc1-2)N1CCCCC1 [Compound 24]
HDDA (g/100 g): >15 g/100 g
Acetone (g/100 g): >30 g/100 g

C=CCC1(CC=C)c2ccccc2-c2ccc(C(=O)C(CC)(Cc3ccccc3)N(C)C)cc21 (stereo not shown) [Compound 34]
HDDA (g/100 g): >15 g/100 g
Acetone (g/100 g): >30 g/100 g

CCC(Cc1ccccc1)(C(=O)c1ccc2c(c1)C(C)(C)c1cc(N3CCOCC3)ccc1-2)N(C)C (stereo not shown) [Compound 38, 2-benzyl-2-dimethylamino-9,9-dimethyl-1-(7-morpholinofluorenyl)butanone]
HDDA (g/100 g): >15 g/100 g
Acetone (g/100 g): >30 g/100 g

C=CCC(CC)(C(=O)c1ccc2c(c1)C(C)(C)c1cc(N3CCCCC3)ccc1-2)N(C)C (stereo not shown) [Compound 39, 2-allyl-2-dimethylamino-9,9-dimethyl-2-(7-piperidinylfluorenyl)butanone]
HDDA (g/100 g): >15 g/100 g
Acetone (g/100 g): >30 g/100 g

CCCCC1(CCCC)c2ccccc2-c2ccc(C(=O)C(CC)(Cc3ccccc3)N(C)C)cc21 (stereo not shown) [Compound 40, 2-benzyl-2-dimethylamino-9,9-dibutylfluorene-1-butanone]
HDDA (g/100 g): >15 g/100 g
Acetone (g/100 g): >30 g/100 g

CCCCC1(CCCC)c2cc(C(=O)c3ccccc3)ccc2-c2ccc(C(=O)C(CC)(Cc3ccccc3)N(C)C)cc21 (stereo not shown) [Compound 41, 2-benzyl-2-dimethylamino-9,9-dibutyl-1-(7-benzoyl)butanone]
HDDA (g/100 g): >15 g/100 g
Acetone (g/100 g): >30 g/100 g

CCCCN(CCCC)c1ccc2c(c1)C(C)(C)c1cc(C(=O)C(CC)(Cc3ccccc3)N(C)C)ccc1-2 (stereo not shown) [Compound 42]
HDDA (g/100 g): >15 g/100 g
Acetone (g/100 g): >30 g/100 g

CCCC1(CCC)c2cc(C(=O)C(CC)(Cc3ccccc3)N(C)C)ccc2-c2ccc(N3CCCCC3)cc21 (stereo not shown) [Compound 43]
HDDA (g/100 g): >15 g/100 g
Acetone (g/100 g): >30 g/100 g

CCC(Cc1ccccc1)(C(=O)c1ccc2c(c1)C(C)(C)c1cc(N(CCO)CCO)ccc1-2)N(C)C (stereo not shown) [Compound 45]
HDDA (g/100 g): >15 g/100 g
Acetone (g/100 g): >30 g/100 g

CCC(Cc1ccccc1)(C(=O)c1ccc(N2CCOCC2)cc1)N(C)C (stereo not shown) [Irgacure 369, 2-benzyl-2-dimethylamino-1-(4-morpholinophenyl)butanone, reference compound]
solubility (in the UV curing ink formulation, about 10% of butanone solvent required to dissolve completely): relatively poor
HDDA (g/100 g): 5 g/100 g
Acetone (g/100 g): 17 g/100 g

CCC(Cc1ccc(C)cc1)(C(=O)c1ccc(N2CCOCC2)cc1)N(C)C (stereo not shown) [Irgacure 379, 2-(4-methylbenzyl)-2-dimethylamino-1-(4-morpholinophenyl)butanone, reference compound]
HDDA (g/100 g): 11 g/100 g
Acetone (g/100 g): 24 g/100 g
